Here are results for 17 compounds from patent publication US20240360113A1, “AMINOARYL-INTEGRIN AGONISTS COMPOUNDS” (Texas Heart Institute, priority 2021, published 2024).

One experiment concerns the target T1, αLβ2/ICAM-1 (Homo sapiens, UniProt P05107+P20701).
T1 construct: The Jurkat (VCAM-1 assays) and HSB (ICAM-1 assays) cell lines were obtained from American Type Culture Collection; endogenous in cells; host or cells: HSB (ATCC)
In words: Static cell adhesion assay, HSB cells on ICAM-1 (LFA-1; LAD). The format is cell-based. As to conditions: RFU of compound / RFU of THI0349, both at the same concentration. The gist of the method: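 HSB cells were labeled with calcein-AM for 30 minutes, washed, resuspended in binding buffer (PBS with 2 mM MgCl2, 5 mM EGTA, 50% FBS) and plated at 2×10^5 cells/well in triplicate onto 96-well plates coated overnight at 4° C with ICAM-1 (5 μg/mL in 50 μL TBS) and blocked with 2% BSA. Compounds were tested in 1% DMSO. After 30 minutes at 37° C and three washes, adherent cells were lysed and fluorescence was read; results are compound RFU divided by THI0349 RFU.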

The target in a further experiment is T2, α4β1/VCAM-1 (Homo sapiens, UniProt P05556+P13612).
T2 construct: The Jurkat (VCAM-1 assays) and HSB (ICAM-1 assays) cell lines were obtained from American Type Culture Collection; endogenous in cells; host or cells: Jurkat (ATCC)
T2 sequence (P13612 34-1032): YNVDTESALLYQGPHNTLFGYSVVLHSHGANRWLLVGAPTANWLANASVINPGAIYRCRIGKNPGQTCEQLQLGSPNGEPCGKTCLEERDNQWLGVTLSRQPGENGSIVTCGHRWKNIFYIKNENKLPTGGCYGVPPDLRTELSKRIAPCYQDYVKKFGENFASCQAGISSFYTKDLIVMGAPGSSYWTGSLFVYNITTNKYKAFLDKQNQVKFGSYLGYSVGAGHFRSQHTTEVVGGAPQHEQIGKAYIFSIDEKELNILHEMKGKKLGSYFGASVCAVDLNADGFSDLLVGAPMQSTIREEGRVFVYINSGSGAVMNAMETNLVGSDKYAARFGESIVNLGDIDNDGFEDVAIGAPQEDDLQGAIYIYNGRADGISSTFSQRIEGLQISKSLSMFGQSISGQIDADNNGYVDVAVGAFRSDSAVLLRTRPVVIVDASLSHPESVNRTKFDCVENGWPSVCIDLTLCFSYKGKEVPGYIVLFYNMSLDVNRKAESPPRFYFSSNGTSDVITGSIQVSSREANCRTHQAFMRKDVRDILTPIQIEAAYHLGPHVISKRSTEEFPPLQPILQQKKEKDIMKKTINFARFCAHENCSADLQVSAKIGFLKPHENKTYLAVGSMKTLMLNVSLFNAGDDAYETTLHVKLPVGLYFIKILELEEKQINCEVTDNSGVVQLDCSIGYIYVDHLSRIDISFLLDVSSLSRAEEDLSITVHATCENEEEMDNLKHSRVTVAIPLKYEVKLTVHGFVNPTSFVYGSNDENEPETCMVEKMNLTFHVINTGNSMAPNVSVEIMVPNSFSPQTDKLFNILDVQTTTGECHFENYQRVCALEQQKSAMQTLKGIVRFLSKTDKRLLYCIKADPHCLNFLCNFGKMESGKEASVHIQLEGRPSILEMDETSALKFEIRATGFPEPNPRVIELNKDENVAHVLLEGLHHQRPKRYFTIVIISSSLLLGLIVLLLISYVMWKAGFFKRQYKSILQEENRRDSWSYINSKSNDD
T2 sequence (P05556 21-798): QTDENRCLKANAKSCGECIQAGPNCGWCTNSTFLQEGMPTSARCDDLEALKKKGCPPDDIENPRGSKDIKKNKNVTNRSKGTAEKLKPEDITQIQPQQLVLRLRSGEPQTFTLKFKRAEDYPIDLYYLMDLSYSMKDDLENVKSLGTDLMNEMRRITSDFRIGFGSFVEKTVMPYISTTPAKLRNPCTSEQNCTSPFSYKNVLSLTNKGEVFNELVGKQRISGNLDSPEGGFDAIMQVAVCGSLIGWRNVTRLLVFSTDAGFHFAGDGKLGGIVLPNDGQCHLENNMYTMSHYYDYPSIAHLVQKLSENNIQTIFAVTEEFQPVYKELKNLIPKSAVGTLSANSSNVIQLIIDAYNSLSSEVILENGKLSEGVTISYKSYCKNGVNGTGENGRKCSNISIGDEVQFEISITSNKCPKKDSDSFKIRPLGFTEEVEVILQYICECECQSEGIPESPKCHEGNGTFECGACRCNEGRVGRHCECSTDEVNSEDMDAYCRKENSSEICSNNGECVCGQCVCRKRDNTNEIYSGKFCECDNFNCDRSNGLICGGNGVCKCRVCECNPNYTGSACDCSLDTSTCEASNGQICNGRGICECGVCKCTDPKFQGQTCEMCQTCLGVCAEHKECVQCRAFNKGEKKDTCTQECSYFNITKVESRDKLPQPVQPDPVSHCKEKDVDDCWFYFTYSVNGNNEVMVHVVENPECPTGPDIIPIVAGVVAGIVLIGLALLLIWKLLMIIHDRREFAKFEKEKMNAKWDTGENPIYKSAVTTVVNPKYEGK
In words: Static cell adhesion assay, Jurkat cells on VCAM-1 (VLA-4 agonist activity). It counts as cell-based. As to conditions: EC50 relative to THI0349 (average 11 uM) run on the same plate; Jurkat cells, 50% FBS. The gist of the method: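 Calcein-labelled Jurkat cells (2×10^5/well) were added to wells coated with a sub-optimal level of human VCAM-1 (0.5 μg/mL) in PBS, 1 mM MgCl2, 50% FBS with compound in 1% DMSO. After 30 min at 37° C. and washing, adherent-cell fluorescence was read. EC50 was the concentration giving 50% of maximal response.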

T1 sequence (P20701 26-1170): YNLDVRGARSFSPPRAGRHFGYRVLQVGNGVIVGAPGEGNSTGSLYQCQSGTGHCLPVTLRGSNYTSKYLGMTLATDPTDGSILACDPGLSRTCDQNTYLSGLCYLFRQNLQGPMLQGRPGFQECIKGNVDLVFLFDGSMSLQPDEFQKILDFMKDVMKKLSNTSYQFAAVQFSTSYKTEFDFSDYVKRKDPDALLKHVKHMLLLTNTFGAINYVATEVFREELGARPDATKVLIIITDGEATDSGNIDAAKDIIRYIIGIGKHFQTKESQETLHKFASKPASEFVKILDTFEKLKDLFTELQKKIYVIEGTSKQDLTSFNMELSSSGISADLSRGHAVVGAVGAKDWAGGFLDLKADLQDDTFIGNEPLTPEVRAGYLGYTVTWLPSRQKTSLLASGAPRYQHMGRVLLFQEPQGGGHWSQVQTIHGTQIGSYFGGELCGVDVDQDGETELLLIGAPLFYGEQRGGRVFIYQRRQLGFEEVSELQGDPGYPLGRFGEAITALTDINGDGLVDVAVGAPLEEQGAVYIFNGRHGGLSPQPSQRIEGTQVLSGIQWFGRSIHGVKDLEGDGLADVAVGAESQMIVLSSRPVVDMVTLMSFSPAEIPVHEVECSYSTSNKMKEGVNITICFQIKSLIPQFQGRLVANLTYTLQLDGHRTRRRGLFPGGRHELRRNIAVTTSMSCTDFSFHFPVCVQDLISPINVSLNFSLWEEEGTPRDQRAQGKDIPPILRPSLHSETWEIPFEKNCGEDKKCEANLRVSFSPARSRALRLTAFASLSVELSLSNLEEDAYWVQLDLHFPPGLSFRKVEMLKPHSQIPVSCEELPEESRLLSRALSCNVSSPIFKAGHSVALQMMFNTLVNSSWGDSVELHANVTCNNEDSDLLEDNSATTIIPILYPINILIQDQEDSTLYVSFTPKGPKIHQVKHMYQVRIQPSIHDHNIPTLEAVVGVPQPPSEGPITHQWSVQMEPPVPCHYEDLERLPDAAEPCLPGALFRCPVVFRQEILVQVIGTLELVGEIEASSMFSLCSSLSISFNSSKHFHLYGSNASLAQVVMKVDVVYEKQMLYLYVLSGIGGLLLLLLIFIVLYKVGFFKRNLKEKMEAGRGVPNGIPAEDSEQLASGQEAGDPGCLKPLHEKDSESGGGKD
T1 sequence (P05107 23-769): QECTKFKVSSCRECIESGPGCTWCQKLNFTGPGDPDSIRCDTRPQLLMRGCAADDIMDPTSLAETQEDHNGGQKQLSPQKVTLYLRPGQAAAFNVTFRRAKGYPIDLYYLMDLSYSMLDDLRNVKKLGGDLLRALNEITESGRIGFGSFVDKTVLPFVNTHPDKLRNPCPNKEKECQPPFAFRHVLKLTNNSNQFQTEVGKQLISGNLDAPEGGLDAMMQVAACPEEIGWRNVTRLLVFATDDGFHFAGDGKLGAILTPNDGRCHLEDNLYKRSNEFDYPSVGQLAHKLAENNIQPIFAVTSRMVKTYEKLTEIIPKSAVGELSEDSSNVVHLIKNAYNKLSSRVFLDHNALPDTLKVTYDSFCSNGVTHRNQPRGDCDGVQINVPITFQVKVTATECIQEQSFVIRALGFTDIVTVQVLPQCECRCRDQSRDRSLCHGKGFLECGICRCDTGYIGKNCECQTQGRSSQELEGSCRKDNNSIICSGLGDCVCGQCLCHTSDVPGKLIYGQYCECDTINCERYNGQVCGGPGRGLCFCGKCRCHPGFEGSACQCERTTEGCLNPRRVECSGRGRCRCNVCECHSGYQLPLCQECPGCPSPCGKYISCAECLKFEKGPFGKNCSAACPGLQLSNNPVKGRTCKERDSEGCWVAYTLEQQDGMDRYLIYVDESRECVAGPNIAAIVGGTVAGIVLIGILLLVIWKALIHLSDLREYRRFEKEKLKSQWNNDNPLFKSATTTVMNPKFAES

As to `COc1cccc(COCc2csc(N(C)Cc3cccc(OC)c3)n2)c1` [Compound 112, N-(3-methoxybenzyl)-4-((3-methoxybenzyloxy)methyl)-N-methylthiazol-2-amine], the “LAD Raw Fluorescence Units against LFA-1; Dose 3 µM; Ratio of raw counts Compound/THI0349” value on αLβ2/ICAM-1 is given as 0.04. Moreover, the “Group against VCAM” value on α4β1/VCAM-1 is reported as “III (Group III more than five times the EC50 of THI0349)”.
In the same order, the values of `COc1ccc(CCCNC(=O)c2coc(N(Cc3cccc(OC)c3)Cc3cccc(OC)c3)n2)cc1` [Compound 20, 2-(bis(3-methoxybenzyl)amino)-N-(3-(4-methoxyphenyl)propyl)oxazole-4-carboxamide] are 0.19 and “II (Group II is more than twice that of THI0349 but less than five times THI0349's EC50)”.
In the same order, the values of `COc1cccc(CN(Cc2cccc(OC)c2)c2nc(COCCOCc3ccccc3C)cs2)c1` [Compound 60, N,N-bis(3-methoxybenzyl)-4-((2-((2-methylbenzyl)oxy)ethoxy)methyl)thiazol-2-amine] are 0.92 and “I (Group I maintains at least the same potency or better up to more than twice that of the EC50 of THI0349 ran on the same plate)”.
In the same order, the values of `COc1cccc(COCc2csc(N(Cc3ccc(-n4cccn4)cc3)Cc3cccc(OC)c3)n2)c1` [Compound 104, N-(4-(1H-pyrazol-1-yl)benzyl)-N-(3-methoxybenzyl)-4-((3-methoxybenzyloxy)methyl)thiazol-2-amine] are 0.28 and “I (Group I maintains at least the same potency or better up to more than twice that of the EC50 of THI0349 ran on the same plate)”.
As for `COc1cccc(CN(Cc2cccc(OC)c2)c2nc(COCCO)cs2)c1` [Compound 33, 2-((2-(bis(3-methoxybenzyl)amino)thiazol-4-yl)methoxy)ethanol], the “LAD Raw Fluorescence Units against LFA-1; Dose 3 µM; Ratio of raw counts Compound/THI0349” value on αLβ2/ICAM-1 is on record as 0.31. In addition, the “Group against VCAM” value at α4β1/VCAM-1 was “III (Group III more than five times the EC50 of THI0349)”.
For the compound `COc1cccc(CN(Cc2cccc(-n3cccn3)c2)c2nc(CN3CCOCC3)cs2)c1` [Compound 80, N-(3-(1H-pyrazol-1-yl)benzyl)-N-(3-methoxybenzyl)-4-(morpholinomethyl)thiazol-2-amine], the “LAD Raw Fluorescence Units against LFA-1; Dose 3 µM; Ratio of raw counts Compound/THI0349” value at αLβ2/ICAM-1 is given as 0.53. Further, the “Group against VCAM” value at α4β1/VCAM-1 is “I (Group I maintains at least the same potency or better up to more than twice that of the EC50 of THI0349 ran on the same plate)”.
For the compound `COc1cccc(CN(Cc2cccc(OC)c2)c2nc(COCCOCCN3CCN(C)CC3)cs2)c1` [Compound 63, N,N-bis(3-methoxybenzyl)-4-((2-(2-(4-methylpiperazin-1-yl)ethoxy)ethoxy)methyl)thiazol-2-amine], on αLβ2/ICAM-1, the “LAD Raw Fluorescence Units against LFA-1; Dose 3 µM; Ratio of raw counts Compound/THI0349” value is listed as 0.5. The “Group against VCAM” value on α4β1/VCAM-1 is reported as “III (Group III more than five times the EC50 of THI0349)”.
On the same counts, the results for `COc1cccc(CN(Cc2cccc(OC)c2)c2nc(COCCN(C)C)cs2)c1` [Compound 82, 4-((2-(dimethylamino)ethoxy)methyl)-N,N-bis(3-methoxybenzyl)thiazol-2-amine] are 0.05 and “II (Group II is more than twice that of THI0349 but less than five times THI0349's EC50)”.
For the compound `CCOC(=O)c1csc(N(Cc2cccc(OC)c2)Cc2cccc(-n3ccnc3)c2)n1` [Compound 118, ethyl 2-((3-(1H-imidazol-1-yl)benzyl)(3-methoxybenzyl)amino)thiazole-4-carboxylate], the “LAD Raw Fluorescence Units against LFA-1; Dose 3 µM; Ratio of raw counts Compound/THI0349” value at αLβ2/ICAM-1 is 0.15. Moreover, the “Group against VCAM” value on α4β1/VCAM-1 is given as “II (Group II is more than twice that of THI0349 but less than five times THI0349's EC50)”.
In the same order, the values of `COc1cccc(CN(Cc2cccc(OC)c2)c2nc(COCCN3CCCCC3)cs2)c1` [Compound 65, N,N-bis(3-methoxybenzyl)-4-((2-(piperidin-1-yl)ethoxy)methyl)thiazol-2-amine] are 0.29 and “I (Group I maintains at least the same potency or better up to more than twice that of the EC50 of THI0349 ran on the same plate)”.
Take `COc1cccc(CN(Cc2cccc(OC)c2)c2nc(COCCOCCN3CCOCC3)cs2)c1` [Compound 61, N,N-bis(3-methoxybenzyl)-4-((2-(2-morpholinoethoxy)ethoxy)methyl)thiazol-2-amine]: on αLβ2/ICAM-1, the “LAD Raw Fluorescence Units against LFA-1; Dose 3 µM; Ratio of raw counts Compound/THI0349” value is reported as 1.9. In addition, the “Group against VCAM” value on α4β1/VCAM-1 is listed as “I (Group I maintains at least the same potency or better up to more than twice that of the EC50 of THI0349 ran on the same plate)”.
In the same order, the values of `CCOC(=O)c1csc(N(Cc2cccc(OC)c2)CC(C)C)n1` [Compound 121, ethyl 2-(isobutyl(3-methoxybenzyl)amino)thiazole-4-carboxylate] are 0.18 and “III (Group III more than five times the EC50 of THI0349)”.
Take `CCOC(=O)c1csc(N(Cc2cccc(OC)c2)Cc2ccc3ncccc3c2)n1` [Compound 114, ethyl 2-((3-methoxybenzyl)(quinolin-6-ylmethyl)amino)thiazole-4-carboxylate]: on αLβ2/ICAM-1, the “LAD Raw Fluorescence Units against LFA-1; Dose 3 µM; Ratio of raw counts Compound/THI0349” value stood at 0.39. At α4β1/VCAM-1, the “Group against VCAM” value is reported as “II (Group II is more than twice that of THI0349 but less than five times THI0349's EC50)”.
On the same counts, the results for `COc1ccc(CN(Cc2ccc(OC)cc2)c2nc(COCCOCCOCc3csc(N(Cc4ccc(OC)cc4)Cc4ccc(OC)cc4)n3)cs2)cc1` [Compound 35, 4,4′-(2,2′-oxybis(ethane-2,1-diyl)bis(oxy))bis(methylene)bis(N,N-bis(4-methoxybenzyl)thiazol-2-amine)] are 0.98 and “II (Group II is more than twice that of THI0349 but less than five times THI0349's EC50)”.
With `COc1cccc(CN(Cc2cccc(OC)c2)c2nc(COCCOCCOc3ccccc3)cs2)c1` [Compound 43, N,N-bis(3-methoxybenzyl)-4-((2-(2-phenoxyethoxy)ethoxy)methyl)thiazol-2-amine], the “LAD Raw Fluorescence Units against LFA-1; Dose 3 µM; Ratio of raw counts Compound/THI0349” value on αLβ2/ICAM-1 worked out at 0.80. For the same compound, at α4β1/VCAM-1, the “Group against VCAM” value was “I (Group I maintains at least the same potency or better up to more than twice that of the EC50 of THI0349 ran on the same plate)”.
On the same counts, the results for `COc1cccc(CN(Cc2cccc(OC)c2)c2nc(COCCOCCOc3cccc(C#N)c3)cs2)c1` [Compound 45, 3-(2-(2-((2-(bis(3-methoxybenzyl)amino)thiazol-4-yl)methoxy)ethoxy)ethoxy)benzonitrile] are 0.76 and “I (Group I maintains at least the same potency or better up to more than twice that of the EC50 of THI0349 ran on the same plate)”.
Take `COc1cccc(COCc2ccc(N(Cc3cccc(OC)c3)Cc3cccc(OC)c3)cc2)c1` [Compound 89, N,N-bis(3-methoxybenzyl)-4-((3-methoxybenzyloxy)methyl)aniline]: the “LAD Raw Fluorescence Units against LFA-1; Dose 3 µM; Ratio of raw counts Compound/THI0349” value at αLβ2/ICAM-1 is 0.34. Besides, the “Group against VCAM” value on α4β1/VCAM-1 is listed as “III (Group III more than five times the EC50 of THI0349)”.
